From patent US8889676B2, “3-ureidoisoquinolin-8-yl derivatives” (Actelion Pharmaceuticals Ltd., priority 2011, dated 2014) come the findings set out here.

In brackets after ≈: the same amount, converted by molar mass.

This assay deals with S. pneumoniae ATCC 49619. Briefly: Minimal inhibitory concentration (MIC) by broth microdilution (CLSI M7-A7). In kind it is cell-based, Streptococcus pneumoniae. As to conditions: Streptococcus pneumoniae, ATCC49619; cation-adjusted Mueller Hinton Broth supplemented with 3% (v/v) lysed horse blood; microdilution method. The method, then: Minimal inhibitory concentrations (MICs; mg/l) were determined in cation-adjusted MuellerHinton Broth (supplemented with 3% (v/v) lysed horse blood for testing Streptococcus pneumoniae) by a microdilution method following the description given in “Methods for Dilution Antimicrobial Susceptibility Tests for Bacteria that Grow Aerobically”, Approved standard, 7th ed., a Clinical and Laboratory Standards Institute (CLSI) Document M7-A7, Wayne, Pa., USA, 2006.
As for `CCNC(=O)Nc1cc2cccc(CNC(=O)OCc3cn[nH]c3)c2cn1.Cl` [Example 39, [3-(3-ethyl-ureido)-isoquinolin-8-ylmethyl]-carbamic acid 1H-pyrazol-4-ylmethyl ester hydrochloride], the MIC is 2 mg/L.

`C#CCCOC(=O)NCc1cccc2cc(NC(=O)NCC)ncc12.Cl` [Example 40, [3-(3-ethyl-ureido)-isoquinolin-8-ylmethyl]-carbamic acid but-3-ynyl ester hydrochloride] displayed an MIC of 4 mg/L. Take `C#CCOC(=O)NCc1ccc(-c2ccncc2)c2cc(NC(=O)NCC)ncc12` [Example 41, [3-(3-ethyl-ureido)-5-pyridin-4-yl-isoquinolin-8-ylmethyl]-carbamic acid prop-2-ynyl ester]: the MIC came out at 0.25 mg/L (≈ 0.62 µM).

As to `CCNC(=O)Nc1cc2c(-c3ccncc3)ccc(CNC(=O)OCc3cccnc3)c2cn1` [Example 42, [3-(3-ethyl-ureido)-5-pyridin-4-yl-isoquinolin-8-ylmethyl]-carbamic acid pyridin-3-ylmethyl ester], the lowest concentration to inhibit growth (MIC) was 0.5 mg/L (≈ 1.1 µM). `CCNC(=O)NCc1cccc2cc(NC(=O)NCC)ncc12` [Example 43, 1-ethyl-3-{8-[(3-ethyl-ureido)-methyl]isoquinolin-3-yl}-urea] gave an MIC of 4 mg/L (≈ 12.7 µM).

The molecule `C#CCOC(=O)N(C)Cc1cccc2cc(NC(=O)NCC)ncc12` [Example 44, [3-(3-ethyl-ureido)-isoquinolin-8-ylmethyl]-methyl-carbamic acid prop-2-ynyl ester] gave an MIC of 8 mg/L (≈ 23.5 µM).

As to `CCNC(=O)Nc1cc2c(-c3ccncc3)ccc(CNC(=O)CC(=O)O)c2cn1` [Example 45, N-[3-(3-ethyl-ureido)-5-pyridin-4-yl-isoquinolin-8-ylmethyl]-malonamic acid], the MIC is 8 mg/L (≈ 19.6 µM). The molecule `CCNC(=O)Nc1cc2c(-c3ccncc3)ccc(CNC(=O)CCC(=O)OC(C)(C)C)c2cn1` [Example 46, N-[3-(3-ethyl-ureido)-5-pyridin-4-yl-isoquinolin-8-ylmethyl]-succinamic acid tert-butyl ester] came in with an MIC of 2 mg/L (≈ 4.19 µM).

Molecule `CCNC(=O)Nc1cc2c(-c3ccncc3)ccc(CNC(=O)CNC(=O)OC(C)(C)C)c2cn1` [Example 47, ({[3-(3-ethyl-ureido)-5-pyridin-4-yl-isoquinolin-8-ylmethyl]-carbamoyl}-methyl)-carbamic acid tert-butyl ester] gave an MIC of 1 mg/L (≈ 2.09 µM). `CCNC(=O)Nc1cc2c(-c3ccncc3)ccc(CNC(=O)CN(C)C(=O)OC(C)(C)C)c2cn1` [Example 48, ({[3-(3-ethyl-ureido)-5-pyridin-4-yl-isoquinolin-8-ylmethyl]-carbamoyl}-methyl)-methyl-carbamic acid tert-butyl ester] gave an MIC of 2 mg/L (≈ 4.06 µM). As to `CCNC(=O)Nc1cc2c(-c3ccncc3)ccc(CNC(=O)CCNC(=O)OC(C)(C)C)c2cn1` [Example 49, (2-{[3-(3-ethyl-ureido)-5-pyridin-4-yl-isoquinolin-8-ylmethyl]-carbamoyl}-ethyl)-carbamic acid tert-butyl ester], inhibition of growth (MIC) required 0.5 mg/L (≈ 1.02 µM). Molecule `CCNC(=O)Nc1cc2c(-c3ccncc3)ccc(CNC(=O)CN)c2cn1.Cl` [Example 50, 2-amino-N-[3-(3-ethyl-ureido)-5-pyridin-4-yl-isoquinolin-8-ylmethyl]-acetamide hydrochloride] registered an MIC of 4 mg/L. Molecule `CCNC(=O)Nc1cc2c(-c3ccncc3)ccc(CNC(=O)CCN)c2cn1.Cl` [Example 51, 3-amino-N-[3-(3-ethyl-ureido)-5-pyridin-4-yl-isoquinolin-8-ylmethyl]-propionamide hydrochloride] registered an MIC of 8 mg/L. `CCNC(=O)Nc1cc2c(-c3ccncc3)ccc(CNC(=O)CC(N)=O)c2cn1` [Example 52, N-[3-(3-ethyl-ureido)-5-pyridin-4-yl-isoquinolin-8-ylmethyl]-malonamide] returned an MIC of 2 mg/L (≈ 4.92 µM).

`CCNC(=O)Nc1cc2c(-c3ccncc3)ccc(CNC(=O)CC(=O)NC)c2cn1` [Example 53, N-[3-(3-ethyl-ureido)-5-pyridin-4-yl-isoquinolin-8-ylmethyl]-N′-methyl-malonamide] returned an MIC of 4 mg/L (≈ 9.51 µM). The molecule `CCNC(=O)Nc1cc2c(-c3ccncc3)ccc(CNC(=O)CCC(N)=O)c2cn1` [Example 54, N-[3-(3-ethyl-ureido)-5-pyridin-4-yl-isoquinolin-8-ylmethyl]-succinamide] showed an MIC of 4 mg/L (≈ 9.51 µM). With `CCNC(=O)Nc1cc2c(-c3ccncc3)ccc(CNC(=O)CCC(=O)NC)c2cn1` [Example 55, N-[3-(3-ethyl-ureido)-5-pyridin-4-yl-isoquinolin-8-ylmethyl]-N′-methyl-succinamide] the figure was 8 mg/L (≈ 18.4 µM). As for `CCNC(=O)Nc1cc2c(-c3ccncc3)ccc(CNC(=O)CCCNC(=O)OC(C)(C)C)c2cn1` [Example 56, (3-{[3-(3-ethyl-ureido)-5-pyridin-4-yl-isoquinolin-8-ylmethyl]-carbamoyl}-propyl)-carbamic acid tert-butyl ester], inhibition of growth (MIC) required 1 mg/L (≈ 1.97 µM). In the case of `CCNC(=O)Nc1cc2c(-c3ccncc3)ccc(CNC(=O)CC3CC3)c2cn1` [Example 57, 2-cyclopropyl-N-[3-(3-ethyl-ureido)-5-pyridin-4-yl-isoquinolin-8-ylmethyl]-acetamide], the MIC was 0.5 mg/L (≈ 1.24 µM).

Regarding `CCNC(=O)Nc1cc2c(-c3ccncc3)ccc(CNC(=O)CCN(C)C(=O)OC(C)(C)C)c2cn1` [Example 58, (2-{[3-(3-ethyl-ureido)-5-pyridin-4-yl-isoquinolin-8-ylmethyl]-carbamoyl}-ethyl)-methyl-carbamic acid tert-butyl ester], the MIC came to 2 mg/L (≈ 3.95 µM). With `CCNC(=O)Nc1cc2c(-c3ccncc3)ccc(CNC(=O)CC)c2cn1` [Example 59, N-[3-(3-ethyl-ureido)-5-pyridin-4-yl-isoquinolin-8-ylmethyl]-propionamide] the figure was 0.5 mg/L (≈ 1.32 µM); with `CCNC(=O)Nc1cc2c(-c3ccncc3)ccc(CNC(=O)Cc3c[nH]cn3)c2cn1` [Example 60, N-[3-(3-ethyl-ureido)-5-pyridin-4-yl-isoquinolin-8-ylmethyl]-2-(1H-imidazol-4-yl)-acetamide], 8 mg/L (≈ 18.6 µM).

Take `CCNC(=O)Nc1cc2c(-c3ccncc3)ccc(CNC(=O)CO)c2cn1` [Example 61, N-[3-(3-ethyl-ureido)-5-pyridin-4-yl-isoquinolin-8-ylmethyl]-2-hydroxy-acetamide]: the MIC is 4 mg/L (≈ 10.5 µM). `CCNC(=O)Nc1cc2c(-c3ccncc3)ccc(CNC(=O)CCCN(C)C(=O)OC(C)(C)C)c2cn1` [Example 62, (3-{[3-(3-ethyl-ureido)-5-pyridin-4-yl-isoquinolin-8-ylmethyl]-carbamoyl}propyl)-methyl-carbamic acid tert-butyl ester] had an MIC of 1 mg/L (≈ 1.92 µM). Regarding `CCNC(=O)Nc1cc2c(-c3ccncc3)ccc(CNC(=O)CCOC)c2cn1` [Example 63, N-[3-(3-ethyl-ureido)-5-pyridin-4-yl-isoquinolin-8-ylmethyl]-3-methoxy-propionamide], the MIC came to 1 mg/L (≈ 2.45 µM). Turning to `CCNC(=O)Nc1cc2c(-c3ccncc3)ccc(CNC(C)=O)c2cn1` [Example 64, N-[3-(3-ethyl-ureido)-5-pyridin-4-yl-isoquinolin-8-ylmethyl]-acetamide], the MIC was 0.5 mg/L (≈ 1.38 µM). With `CCNC(=O)Nc1cc2c(-c3ccncc3)ccc(CNC(=O)C3CC3)c2cn1` [Example 65, cyclopropanecarboxylic acid [3-(3-ethyl-ureido)-5-pyridin-4-yl-isoquinolin-8-ylmethyl]-amide], the MIC worked out at 0.25 mg/L (≈ 0.642 µM). The molecule `CCNC(=O)Nc1cc2c(-c3ccncc3)ccc(CNC(=O)CC(C)C)c2cn1` [Example 66, N-[3-(3-ethyl-ureido)-5-pyridin-4-yl-isoquinolin-8-ylmethyl]-3-methyl-butyramide] gave an MIC of 0.25 mg/L (≈ 0.617 µM).

For the molecule `CCNC(=O)Nc1cc2c(-c3ccncc3)ccc(CNC(=O)C(C)C)c2cn1` [Example 67, N-[3-(3-ethyl-ureido)-5-pyridin-4-yl-isoquinolin-8-ylmethyl]-isobutyramide], it took 0.5 mg/L (≈ 1.28 µM) to inhibit growth (MIC). `CCNC(=O)Nc1cc2c(-c3ccncc3)ccc(CNC(=O)CCO)c2cn1` [Example 68, N-[3-(3-ethyl-ureido)-5-pyridin-4-yl-isoquinolin-8-ylmethyl]-3-hydroxy-propionamide] gave an MIC of 4 mg/L (≈ 10.2 µM). Regarding `C#CCCC(=O)NCc1ccc(-c2ccncc2)c2cc(NC(=O)NCC)ncc12` [Example 69, pent-4-ynoic acid [3-(3-ethyl-ureido)-5-pyridin-4-yl-isoquinolin-8-ylmethyl]-amide], the MIC stood at 0.25 mg/L (≈ 0.623 µM). The result for `CCNC(=O)Nc1cc2c(-c3ccncc3)ccc(CNC(=O)Cn3cccn3)c2cn1` [Example 70, N-[3-(3-ethyl-ureido)-5-pyridin-4-yl-isoquinolin-8-ylmethyl]-2-pyrazol-1-yl-acetamide] reads 0.5 mg/L (≈ 1.16 µM); that for `CCNC(=O)Nc1cc2c(-c3ccncc3)ccc(CNC(=O)c3cnc[nH]3)c2cn1` [Example 71, 3H-imidazole-4-carboxylic acid [3-(3-ethyl-ureido)-5-pyridin-4-yl-isoquinolin-8-ylmethyl]-amide], 2 mg/L (≈ 4.81 µM); that for `CCNC(=O)Nc1cc2c(-c3ccncc3)ccc(CNC(=O)c3cc[nH]n3)c2cn1` [Example 72, 1H-pyrazole-3-carboxylic acid [3-(3-ethyl-ureido)-5-pyridin-4-yl-isoquinolin-8-ylmethyl]-amide], 0.5 mg/L (≈ 1.2 µM). Regarding `CCNC(=O)Nc1cc2c(-c3ccncc3)ccc(CNC(=O)c3cn[nH]c3)c2cn1` [Example 73, 1H-pyrazole-4-carboxylic acid [3-(3-ethyl-ureido)-5-pyridin-4-yl-isoquinolin-8-ylmethyl]-amide], the MIC stood at 2 mg/L (≈ 4.81 µM).

Turning to `CCNC(=O)Nc1cc2c(-c3ccncc3)ccc(CNC(=O)c3ncc[nH]3)c2cn1` [Example 74, 1H-imidazole-2-carboxylic acid [3-(3-ethyl-ureido)-5-pyridin-4-yl-isoquinolin-8-ylmethyl]-amide], the MIC came to 0.25 mg/L (≈ 0.602 µM).
